From US20080293696A1, “2-Aminoarylcarboxamides Useful as Cancer Chemotherapeutic Agents” (Bayer Pharmaceuticals Corporation, priority 2004, published 2008)
Where a name gives a salt, the structure may show the parent alone.

The molecules below were run on PAKT/PKB (p-(S473) AKT) in H209 small cell lung carcinoma cells stimulated with Stem Cell Factor (assay: PAKT/PKB Cytoblot Assay with H209 cells (SCF-stimulated p-(S473) AKT)). Details: Homo sapiens, NCI-H209, compound 1 hour, SCF 25 ng/mL 5 minutes, group: between 500 nM and 1 μM (units in value).
Type: cell-based
Protocol: PAKT/PKB Cytoblot Assay Protocol with H209 Cells
H209 small cell lung carcinoma cells in log phase were plated at 50,000 cells/well in 96-well poly-lysine coated, clear bottom/black-sided plates (BD Cat # 354640) in 100 μl RPMI medium containing 0.1% (w/v) BSA, and incubated overnight at 37° C. in 5% CO2 incubator. The following day, compounds (10 mM stock solutions in DMSO) were added to the plates to generate final concentrations of 0.0, 0.01, 0.03, 0.1, 0.3, 1.0, 3.0 and 10 μM for IC50 determinations and incubated for 1 hour at 37° C. Cells were then left untreated or stimulated with Stem Cell Factor (SCF: Biosource Cat # PHC2116) at a final concentration of 25 ng/mL for 5 minutes at 37° C. in 5% CO2 incubator. The media was then removed using a vacuum manifold and the cells were washed once with Tris Buffered Saline (TBS).
Cells were then fixed by adding 200 μl of cold 3.7% (v/v) formaldehyde in TBS to each well for 15 minutes at 4° C. After removal of the formaldehyde, the cells were treated with the addition of 50 μl of methanol (at −20° C.) to each well for 5 minutes. After removal of the methanol, […] of 1% (w/v) BSA in TBS was added to each well to block non-specific antibody binding sites and the plate was incubated at room temperature for 30 minutes.
After removal of the blocking buffer, 50 μl of p-(S473) AKT rabbit polyclonal antibody (Cell Signaling Cat # 9277S) was added at a dilution of 1:250 in 0.1% (w/v) BSA in TBS, and the plate was incubated at room temperature for 1 hour. Plates were then washed 3 times with cold TBS containing 0.05% (v/v) Tween 20 (TBS-T) and […] of Horseradish peroxidase (HRP)-conjugated goat-anti-rabbit antibody (Amersham Cat # NA934V) at a dilution of 1:250 in TBS-T was added and the plate was incubated at room temperature for 1 h. After washing with ice-cold TBS-T four times, 100 μl of Enhanced Chemiluminescence (ECL) reagent (Amersham Cat# RPN2209) was added to each well and mixed on a mini-orbital shaker for 1 min. The plate was then read on a Perkin Elmer Victor 5 Multilabel Counter (#1420-0421).

Row | IC50 [nM] | SMILES
1 | 500 to 1000 | COc1cccc(C(=O)Nc2ccc3c(c2)C(F)(F)OC(F)(F)O3)c1NCc1ccncc1 [Example 8, 3-methoxy-2-[(pyridin-4-ylmethyl)amino]-N-(2,2,4,4-tetrafluoro-4H-1,3-benzodioxin-6-yl)benzamide]
2 | 500 to 1000 | O=C(Nc1ccc2c(c1)OC(F)(F)O2)c1ccccc1NCc1ccnc(CO)c1 [Example 177, N-(2,2-difluoro-1,3-benzodioxol-5-yl)-2-({[2-(hydroxymethyl)pyridin-4-yl]methyl}amino)benzamide]
3 | 500 to 1000 | O=C(Nc1ccc2c(c1)C(F)(F)OC(F)(C(F)(F)F)O2)c1cccnc1NCc1ccncc1 (stereo not drawn) [Example 16, 2-[(Pyridin-4-ylmethyl)amino]-N-[2,4,4-trifluoro-2-(trifluoromethyl)-4H-1,3-benzodioxin-6-yl]nicotinamide]

Row | SMILES | IC50 [nM]
4 | CCCCOCCCNC(=O)c1cc(CNc2ccccc2C(=O)Nc2ccc3c(c2)OC(F)(F)O3)ccn1 [Example 112, N-(3-butoxypropyl)-4-{[(2-{[(2,2difluoro-1,3-benzodioxol-5-yl)amino]carbonyl}phenyl)amino]methyl}pyridine-2-carboxamide] | 500 to 1000

Same assay, conditions: Homo sapiens, NCI-H209, compound 1 hour, SCF 25 ng/mL 5 minutes, group: between 1 and 3 μM

Row | IC50 [nM] | SMILES
5 | 1000 to 3000 | CCOc1cc(CCNC(=O)c2cc(CNc3ccccc3C(=O)Nc3ccc4c(c3)OC(F)(F)O4)ccn2)ccc1OC [Example 126, 4-{[(2-{[(2,2-difluoro-1,3-benzodioxol-5-yl)amino]carbonyl}phenyl)amino]methyl}-N-[2-(3-ethoxy-4-methoxyphenyl)ethyl]pyridine-2-carboxamide]
6 | 1000 to 3000 | O=C(Nc1ccc2c(c1)OC(F)(F)C(F)(F)O2)c1ncncc1NCc1ccncc1 [Example 39, 5-[(pyridin-4-ylmethyl)amino]-N-(2,2,3,3-tetrafluoro-2,3-dihydro-1,4-benzodioxin-6-yl)pyrimidine-4-carboxamide]
7 | 1000 to 3000 | CN(C)C(=O)c1cc(CNc2ccc(F)cc2C(=O)Nc2ccc3c(c2)OC(F)(F)O3)ccn1 [Example 42, 4-{[(2-{[(2,2-difluoro-1,3-benzodioxol-5-yl)amino]carbonyl}-4-fluorophenyl)amino]methyl}-N,N-dimethylpyridine-2-carboxamide]

Same assay, conditions: Homo sapiens, NCI-H209, compound 1 hour, SCF 25 ng/mL 5 minutes, group: less than 500 nM

Row | IC50 [nM] | SMILES
8 | < 500 | Cc1csc(Nc2cc(CNc3ccccc3C(=O)Nc3ccc4c(c3)OC(F)(F)O4)ccn2)n1 [Example 176, N-(2,2-difluoro-1,3-benzodioxol-5-yl)-2-[({2-[(4-methyl-1,3-thiazol-2-yl)amino]pyridin-4-yl}methyl)amino]benzamide]
9 | < 500 | CCCOCCCNC(=O)c1cc(CNc2ccccc2C(=O)Nc2ccc3c(c2)OC(F)(F)O3)ccn1 [Example 124, 4-{[(2-{[(2,2-difluoro-1,3-benzodioxol-5-yl)amino]carbonyl}phenyl)amino]methyl}-N-(3-propoxypropyl)pyridine-2-carboxamide]
10 | < 500 | COCCCNC(=O)c1cc(CNc2ccccc2C(=O)Nc2ccc3c(c2)OC(F)(F)O3)ccn1 [Example 89, 4-{[(2-{[(2,2-difluoro-1,3-benzodioxol-5-yl)amino]carbonyl}phenyl)amino]methyl}-N-(3-methoxypropyl)pyridine-2-carboxamide]
11 | < 500 | CNC(=O)c1cc(CNc2cc(F)ccc2C(=O)Nc2ccc3c(c2)OC(F)(F)C(F)(F)O3)ccn1 [Example 32, 4-{[(5-fluoro-2-{[(2,2,3,3-tetrafluoro-2,3-dihydro-1,4-benzodioxin-6-yl)amino]carbonyl}phenyl)amino]methyl}-N-methylpyridine-2-carboxamide]
12 | < 500 | CNC(=O)c1cc(CNc2cc(F)c(F)cc2C(=O)Nc2ccc3c(c2)OC(F)(F)C(F)(F)O3)ccn1 [Example 37, 4-{[(4,5-difluoro-2-{[(2,2,3,3-tetrafluoro-2,3-dihydro-1,4-benzodioxin-6-yl)amino]carbonyl}phenyl)amino]methyl}-N-methylpyridine-2-carboxamide]
13 | < 500 | CNc1cc(CNc2ccccc2C(=O)Nc2ccc3c(c2)OC(F)(F)O3)ccn1 [Example 139, N-(2,2-difluoro-1,3-benzodioxol-5-yl)-2-({[2-(methylamino)pyridin-4-yl]methyl}amino)benzamide trifluoroacetate]
14 | < 500 | COc1ccc(OCC(O)CNC(=O)c2cc(CNc3ccccc3C(=O)Nc3ccc4c(c3)OC(F)(F)O4)ccn2)cc1 (stereo not drawn) [Example 132, 4-{[(2-{[(2,2-difluoro-1,3-benzodioxol-5-yl)amino]carbonyl}phenyl)amino]methyl}-N-[2-hydroxy-3-(4-methoxyphenoxy)propyl]pyridine-2-carboxamide]
15 | < 500 | O=C(Nc1ccc2c(c1)C(F)(F)OC(F)(F)O2)c1ccccc1NCc1ccncc1 [Example 2, 2-[(pyridin-4-ylmethyl)amino]-N-(2,2,4,4-tetrafluoro-4H-1,3-benzodioxin-6-yl)benzamide]
16 | < 500 | CNC(=O)c1cc(CNc2ccccc2C(=O)Nc2ccc3c(c2)OC(F)(F)O3)ccn1 [Example 24, 4-{[(2-{[(2,2-difluoro-1,3-benzodioxol-5-yl)amino]carbonyl}phenyl)amino]methyl}-N-methylpyridine-2-carboxamide]
17 | < 500 | COc1cccc(NCc2ccncc2)c1C(=O)Nc1ccc2c(c1)OC(F)(F)C(F)(F)O2 [Example 9, 2-methoxy-6-[(pyridin-4-ylmethyl)amino]-N-(2,2,3,3-tetrafluoro-2,3-dihydro-1,4-benzodioxin-6-yl)benzamide]
18 | < 500 | O=C(NCc1ccc(N2CCOCC2)cc1)c1cc(CNc2ccccc2C(=O)Nc2ccc3c(c2)OC(F)(F)O3)ccn1 [Example 133, 4-{[(2-{[(2,2-difluoro-1,3-benzodioxol-5-yl)amino]carbonyl}phenyl)amino]methyl}-N-(4-morpholin-4-ylbenzyl)pyridine-2-carboxamide]
19 | < 500 | COC(=O)c1cc(CNc2ccccc2C(=O)Nc2ccc3c(c2)OC(F)(F)O3)ccn1 [Example 76, methyl 4-{[(2-{[(2,2-difluoro-1,3-benzodioxol-5-yl)amino]-carbonyl}phenyl)amino]methyl}pyridine-2-carboxylate]
20 | < 500 | O=C(Nc1ccc2c(c1)OC(F)(F)O2)c1ccccc1NCc1ccnc(NCCO)c1 [Example 134, N-(2,2-difluoro-1,3-benzodioxol-5-yl)-2-[({2-[(2-hydroxyethyl)amino]pyridin-4-yl}methyl)amino]benzamide trifluoroacetate (salt)]
21 | < 500 | COC(=O)COCC(=O)Nc1cc(CNc2ccccc2C(=O)Nc2ccc3c(c2)OC(F)(F)O3)ccn1 [Example 157]
22 | < 500 | O=C(NC1CC1)c1cc(CNc2ccccc2C(=O)Nc2ccc3c(c2)OC(F)(F)O3)ccn1 [Example 74, N-cyclopropyl-4-{[(2-{[(2,2-difluoro-1,3-benzodioxol-5-yl)amino]carbonyl}phenyl)amino]methyl}pyridine-2-carboxamide]
23 | < 500 | O=C(NCCCN1CCCC1=O)c1cc(CNc2ccccc2C(=O)Nc2ccc3c(c2)OC(F)(F)O3)ccn1 [Example 123, 4-{[(2-{[(2,2-difluoro-1,3-benzodioxol-5-yl)amino]carbonyl}phenyl)amino]methyl}-N-[3-(2-oxopyrrolodin-1-yl)propyl]pyridine-2-carboxamide]
24 | < 500 | O=C(NCCCN1CCCC1)c1cc(CNc2ccccc2C(=O)Nc2ccc3c(c2)OC(F)(F)O3)ccn1 [Example 92, 4-{[(2-{[(2,2-difluoro-1,3-benzodioxol-5-yl)amino]carbonyl}phenyl)amino]methyl}-N-(3-pyrrolidin-1-ylpropyl)pyridine-2-carboxamide]
